Where no end group is shown, it is not given here. [ ]: non-standard residue; d: D form. TGN = not defined here
Tested on: CTNNB1
Assay: In vitro DMD assay: mRNA silencing enhancement by peptide conjugates after siRNA-IV treatment
Assay type: cell-based
Conditions: primary mouse hepatocytes, siRNA-IV 125 nM baseline
Procedure: Cryopreserved primary Mouse hepatocytes (Bioreclamation, LLC) were placed into Collagen Type I coated 96-well plates at 25,000 cells per well in serum-containing InVitroGRO CP media (Bioreclamation, LLC) and allowed 5 hours to attach. Media was replaced with InVitroGRO HI media and cells were treated with siRNA-IV at 125 nM [siRNA] for 1 hour. Media was replaced with InVitroGRO HI media and cells were treated for approximately 16 hours with experimental Peptide conjugates at various concentrations to establish a dose-response curve. Peptide conjugates were washed out after 16 hours with InVitroGRO HI media and cells allowed to incubate for an additional 24 hours. Cells were then lysed and mRNA expression of the siRNA target was measured by RT-qPCR (Applied Biosystems Taqman reagents). mRNA silencing activity of each Peptide conjugate was expressed as an enhancement above the baseline activity of 125 nM siRNA-IV alone with respect to the untreated cells and all siRNA target Ct values were normalized to PPIB mRNA for each well (dddCt) and summarized.
The structure of TGN-S-S-peptide is shown below and the activity data is listed in Table 5 (siRNA-IV concentration was kept at […]).

Substance	In vitro dddCt (vs. baseline SCE dose) (Targeted peptide dose 8 nM)	In vitro dddCt (vs. baseline SCE dose) (Targeted peptide dose 40 nM)	In vitro dddCt (vs. baseline SCE dose) (Targeted peptide dose 200 nM)	In vitro dddCt (vs. baseline SCE dose) (Targeted peptide dose 1000 nM)	In vitro dddCt (vs. baseline SCE dose) (Targeted peptide dose 5000 nM)	further results
TGN-S-S-SEQ ID NO: 1633(D) ([dC]G[dL][dF]G[dE][dI][dH][dH][dL][dI][dH][dH]G[dL][dE][dN][dL][dI][dD][dW][dW][dN]G; not fully specified (residue 1); also: TGN attached via disulfide; listed as Homo sapiens)						In vitro dddCt (vs. baseline SCE dose) (Targeted peptide dose 125 nM): −0.39; In vitro dddCt (vs. baseline SCE dose) (Targeted peptide dose 625 nM): −0.57; In vitro dddCt (vs. baseline SCE dose) (Targeted peptide dose 3125 nM): −0.37; In vitro dddCt (vs. baseline SCE dose) (Targeted peptide dose 15625 nM): −0.69
TGN-S-S-SEQ ID NO: 1654 (D)) ([dC]G[dL][dL][dE][dE][dI][dE][dE][dL][dL][dE][dE]G[dL][dE][dN][dL][dI][dD][dW]G[dN][dS]; not fully specified (residue 1); also: TGN attached via disulfide; listed as Homo sapiens)						In vitro dddCt (vs. baseline SCE dose) (Targeted peptide dose 125 nM): −1.05
TGN-S-S-SEQ ID NO: 1717 (L) (C(TGN)FLGALFHALSHLLENLIDWWNG; reading uncertain; also: TGN disulfide conjugate at Cys1; listed as Homo sapiens)						In vitro dddCt (vs. baseline SCE dose) (Targeted peptide dose 25 nM): 0.61; In vitro dddCt (vs. baseline SCE dose) (Targeted peptide dose 625 nM): 0.37; In vitro dddCt (vs. baseline SCE dose) (Targeted peptide dose 3125 nM): 0.15
TGN-S-S-SEQ ID NO: 1738 (D) (G[dL][dF]G[dE][dI][dE][dE][dL][dI][dE][dE]G[dL][dE][dN][dL][dI][dD][dW]G[dN]G[dL][dA][dE][dL][dA][dE][dA][dL][dE][dA][dL][dA][dA]GG[dS][dC]; not fully specified (residue 40); also: disulfide to TGN peptide via Cys40; listed as Homo sapiens)	−0.24	−0.67	−1.57	−1.69	−2.19	
TGN-S-S-SEQ ID NO: 1740(D) (G[dL][dF][dE][dA][dI][dE]G[dF][dI][dE][dN]G[dW][dE]G[dL][dA][dE][dL][dA][dE][dA][dL][dE][dA][dL][dA][dA]GG[dS][dC]; not fully specified (residue 33); also: disulfide to TGN peptide via Cys33; listed as Homo sapiens)	−0.19	−0.46	−1.29	−2.3	−2.98	
TGN-S-S-SEQ ID NO: 1741 (L) (GLFGALAEALAEALAEHLAEALAEALEALAAGGSC(TGN); reading uncertain; also: TGN linked to Cys via disulfide, TGN not defined; listed as Homo sapiens)	0.03	−0.11	−0.25	0.98	−0.58	In vitro dddCt (vs. baseline SCE dose) (Targeted peptide dose 24 nM): 0; In vitro dddCt (vs. baseline SCE dose) (Targeted peptide dose 120 nM): 0.02; In vitro dddCt (vs. baseline SCE dose) (Targeted peptide dose 600 nM): −0.08; In vitro dddCt (vs. baseline SCE dose) (Targeted peptide dose 3000 nM): −0.4; In vitro dddCt (vs. baseline SCE dose) (Targeted peptide dose 15000 nM): −0.25
TGN-S-S-SEQ ID NO: 1747 (D) ([dC]G[dL][dF]G[dE][dI][dE][dE][dL][dL][dE][dE]G[dL][dE][dN][dL][dI][dD][dW]G[dN]G; not fully specified (residue 1); also: disulfide to TGN peptide via Cys1; listed as Homo sapiens)	−0.23	−0.7	−1.53	−2.08	−1.98	
TGN-S-S-SEQ ID NO: 1748 (D) ([dC]G[dL][dF]G[dE][dI][dE][dE][dL][dI][dE][dE][dA][dL][dE][dN][dL][dI][dD][dW]G[dN]G; not fully specified (residue 1); also: disulfide to TGN peptide via Cys1; listed as Homo sapiens)	−0.2	−0.5	−1.38	−1.92	−2.01	
TGN-S-S-SEQ ID NO: 1749 (D) ([dC]G[dL][dF]G[dE][dI][dE][dE][dL][dI][dE][dE]G[dF][dE][dN][dL][dI][dD][dW]G[dN]G; not fully specified (residue 1); also: disulfide to TGN peptide via Cys1; listed as Homo sapiens)	0.02	−0.04	−0.26	−0.22	−0.11	
TGN-S-S-SEQ ID NO: 1751 (D) ([dC]G[dL][dF]G[dE][dI][dE][dE][dL][dI][dE][dE]G[dW][dE][dN][dL][dI][dD][dW]G[dN]G; not fully specified (residue 1); also: disulfide to TGN peptide via Cys1; listed as Homo sapiens)	−0.1	−0.12	0.09	−0.05	0.01	
TGN-S-S-SEQ ID NO: 1752 (D) ([dC]G[dL][dF]G[dE][dI][dE][dE][dW][dI][dE][dE]G[dL][dE][dN][dL][dI][dD][dW]G[dN]G; not fully specified (residue 1); also: disulfide to TGN peptide via Cys1; listed as Homo sapiens)	−0.25	−0.48	−0.89	−0.95	−1.02	
TGN-S-S-SEQ ID NO: 1753 (D) ([dC]G[dL][dF]G[dE][dI][dE][dE][dF][dI][dE][dE]G[dL][dE][dN][dL][dI][dD][dW]G[dN]G; not fully specified (residue 1); also: disulfide to TGN peptide via Cys1; listed as Homo sapiens)	0.15	0.05	−0.2	−0.18	−0.16	
TGN-S-S-SEQ ID NO: 1755 (D) ([dC]G[dL][dF]G[dE][dI][dE][dE][dL][dF][dE][dE]G[dL][dE][dN][dL][dI][dD][dW]G[dN]G; not fully specified (residue 1); also: disulfide to TGN peptide via Cys1; listed as Homo sapiens)	−0.01	−0.24	−0.38	−0.49	−0.24	
TGN-S-S-SEQ ID NO: 1758 (D) ([dC]G[dL][dF]G[dE][dI][dE][dE][dL][dI][dE][dE]G[dL][dE][dE][dL][dI][dD][dW]G[dN]G; not fully specified (residue 1); also: disulfide to TGN peptide via Cys1; listed as Homo sapiens)	0.04	−0.02	−0.38	−0.77	−0.64	
TGN-S-S-SEQ ID NO: 1759 (D) ([dC]G[dL][dF]G[dE][dI][dE][dE][dL][dI][dE][dE]G[dL][dE][dS][dL][dI][dD][dW]G[dN]G; not fully specified (residue 1); also: disulfide to TGN peptide via Cys1; listed as Homo sapiens)	−0.15	−0.87	−1.65	−1.66		
TGN-S-S-SEQ ID NO: 1760 (D) ([dC]G[dL][dF]G[dE][dI][dE][dE][dL][dI][dE][dE]G[dL][dE][dQ][dL][dI][dD][dW]G[dN]G; not fully specified (residue 1); also: disulfide to TGN peptide via Cys1; listed as Homo sapiens)	−0.09	−1.01	−1.6	−1.8	−1.46	

— US10239957B2, “Peptide containing conjugates for dual molecular delivery of oligonucleotides” (Merck Sharp & Dohme Corp., priority 2013, dated 2019)
